Experimental data from patent US20090239884A1, “Methods of Treating Inflammation” (priority 2006, published 2009).

Assays:
CD4+CD25− T cells = test: cAMP levels in CD4+CD25− T cells; assay type: cell-based, mouse; conditions: 20 minutes of treatment; resolved by 90 minutes
bEnd.3 cells = test: intracellular cAMP ELISA in bEnd.3 cells; assay type: cell-based, mouse; conditions: DP 100 μM, IBMX 300 μM; for cAMP levels in bEnd.3 cells: 45 minutes
Method: Intracellular cAMP ELISAs. Activated bEnd.3 cells were treated as described above for 20, 45, or 90 minutes. cAMP levels were determined with a Correlate cAMP ELISA kit (Assay Designs, Ann Arbor, Mich.) using an ELISA reader (Bio-Rad, Hercules, Calif.) at 405 nm.
In FIG. 23B, IBMX (300 μM), DP (100 μM), or vehicle (0.1% DMSO) were added to the bEnd.3 cells for the final 20, 45, and 90 minutes of TNF-α exposure and the cellular cAMP content analyzed by ELISA. The values are given as the mean±SEM of an experiment run in duplicate with the results representative of 2 independent experiments (*p<0.05, **p<0.001; one way ANOVA followed by Bonferroni t-test for comparisons between vehicle and DP or IBMX and an unpaired t-test for comparisons between DP and IBMX).

[1] = test system: Con A-stimulated mouse splenocytes; test: transwell chemotaxis assay in response to CXCL12, Con A-stimulated splenocytes; assay type: cell-based; conditions: Mus musculus, Splenocyte, 4 h; read-out: inhibition of CXCL12-induced migration
Method: (§1) Isolation of murine splenocytes. Splenocytes were isolated from 6-8 week old C57BL/6 mice obtained from Jackson Laboratories (Bar Harbor, Me.). Spleens were removed and a single-cell suspension prepared using 40 μm cell strainers (Fisher Scientific). Cells were washed with RPMI 1640 medium supplemented with 5% fetal bovine serum, 2 mM L-glutamine, 100 U/ml penicillin and […] (all from GIBCO). Red blood cells were lysed using standard lysis buffer (0.15M NH4Cl, 10mM KHCO3, 0.1 mM EDTA PH 7.4). Cells were then washed and used in chemotaxis assays either as unstimulated cells or after stimulation with Con A ([…]) as indicated.
(§2) Preparation of Test Reagents. […] This concentration of DMSO had no effect on migration of splenocytes in the presence or absence of CXCL12. CXCL12 was prepared as a 100 μg/ml stock solution in PBS+0.1% BSA, Con A was prepared as a stock of 2.5 mg/ml in PBS, and dibutyryl cAMP and Rp-cAMPS were prepared as 50 mM stock solutions in water, and these reagents were diluted directly into the chemotaxis assays.
(§3) Chemotaxis Assay. Chemotaxis assays were done in 24-well transwell plates with a pore size of 5 μm (Costar, Corning). Splenocytes were placed in medium at a concentration of 3×10^6 cells/ml. Where test agents were used, splenocytes were pretreated with the agent or vehicle for 45 to 60 min, following which 100 μl of the splenocyte suspension was placed into the upper chamber of transwell plates, and the lower chamber was filled with 600 μl of medium. When added to induce migration, CXCL12 (250 ng/ml) was added to the lower chamber only. Other test reagents were added as indicated to both the upper and lower chambers. After 4 hours of incubation at 37° C. in 5% CO2, transwell inserts were gently removed and the number of cells that migrated into the lower chamber were counted by withdrawing 500 μl of lower chamber medium, mixing it with 10 ml of buffer and counting the cells on a Coulter Counter (Beckman Coulter Z series). Where results are expressed as % of CXCL12-stimulated migration, this was calculated as follows: (cells migrated in presence of CXCL12 and test reagent—cells migrated in medium alone)/(cells migrated in presence of CXCL12-cells migrated in medium alone)×100. Experimental points for all chemotaxis assays were performed in triplicate.
(§4) Splenocytes isolated from mice were assayed for migration in response to CXCL12 (250 ng/ml), either directly (unstimulated) or following 48 hr of incubation with 3 μg/ml Con A (stimulated), as described in Methods. To test for effects of dibutyryl cAMP, cells were pretreated with dibutyryl cAMP (500 μM) for 45-60 min prior to beginning the chemotaxis assay, and the assays were conducted with dibutyryl cAMP (db-cAMP) present (500 μM) in both the upper and lower chambers of the transwell plates. Data plotted are derived from a single experiment performed in triplicate. *p<0.001; **p<0.02.

PDE8A1 catalytic domain = PDE8A1 catalytic domain (Homo sapiens, UniProt O60658); conditions: wild type; cited from earlier work
Sequence of PDE8A1 catalytic domain (O60658 480-820 limits assumed): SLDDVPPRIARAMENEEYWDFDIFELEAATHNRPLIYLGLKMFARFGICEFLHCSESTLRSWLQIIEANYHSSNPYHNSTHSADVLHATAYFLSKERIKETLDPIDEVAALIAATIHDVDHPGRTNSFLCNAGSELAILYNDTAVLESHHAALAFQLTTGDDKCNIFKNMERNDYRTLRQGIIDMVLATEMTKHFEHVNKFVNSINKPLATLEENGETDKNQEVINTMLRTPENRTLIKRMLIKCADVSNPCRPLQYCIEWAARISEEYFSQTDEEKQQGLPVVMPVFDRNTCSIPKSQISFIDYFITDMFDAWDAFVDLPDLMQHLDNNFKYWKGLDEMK

[2] = test system: unstimulated mouse splenocytes; test: transwell chemotaxis assay in response to CXCL12, unstimulated splenocytes; assay type: cell-based; conditions: Mus musculus, Splenocyte, 4 h; read-out: inhibition of CXCL12-induced migration
Method: as §1, §2, §3, §4

Row | SMILES | cAMP in CD4+CD25− T cells (CD4+CD25− T cells) | cAMP levels in bEnd.3 cells (bEnd.3 cells) | increase of cAMP levels in bEnd.3 cells (bEnd.3 cells; within 20 minutes) | inhibition at 100 µM [1] [%] | IC50 (PDE8A1 catalytic domain) [µM] | inhibition at 100 µM [2] [%] | inhibition at 300 µM [1] [%] | sensitivity of PDE8A1 catalytic domain to inhibition (PDE8A1 catalytic domain) | inhibition at 300 µM [2] [%]
1 | OCCN(CCO)c1nc(N2CCCCC2)c2nc(N(CCO)CCO)nc(N3CCCCC3)c2n1 [Dipyridamole, 2,2′,2″,2′″-(4,8-di(piperidin-1-yl)pyrimido[5,4-d]pyrimidine-2,6-diyl)bis(azanetriyl)tetraethanol] | increase | significantly increased | over 2 fold | 54 | ~6 | 55 | – | – | –
2 | CC(C)Cn1c(=O)n(C)c(=O)c2[nH]cnc21 [IBMX, 3-isobutyl-1-methylxanthine] | increase | significantly increased | – | – | – | – | 21 | insensitive | 57
